Entries after “also recorded” stand apart in the source; their conditions may differ. Read-outs that look alike come from different tables or passages of the source.

Data set [1] is described as follows: Prazole degradation rate: prodrug remaining in pH 5.8 buffer by 1D proton NMR. The settings on record: for prodrug remaining at 17 hours: 1D proton NMR.
A further data set relates to EBOV (Zaire). Briefly: microbe, parasite or virus in culture. Format: cell-based, Ebola virus.
The next data set relates to HIV-1. Briefly: microbe, parasite or virus in culture. Type of data set: cell-based. The settings on record: for EC50: Human immunodeficiency virus 1, HEK-293T.
Data set [2] in a line: WST-1 cellular metabolism measurement for the five prazoles (CC50). Format: cell-based. The settings on record: human, 293 T cells, 50% metabolic activity of control, WST reagent, read-out: Cytotoxicity (CC50).
Data set [3] concerns pseudotyped virus using the EBOV Env (G) protein. The settings on record: cited from earlier work.
Data set [4] in a line: in vitro. The settings on record: human.
The next data set has as its system DENV 2 strain 16681. Type of data set: cell-based, Dengue virus type 2.
The test system of the next data set is MAYV TRVL 15537. Format: cell-based, Mayaro virus.
Data set [5] deals with Mahoney strain of poliovirus. Format: cell-based, Poliovirus Type I Mahoney. The settings on record: 293 T cells, up to 100 μM, plaque assay.
The next data set concerns the target T1, Tsg101 UEV domain (Homo sapiens, UniProt Q99816).
T1 construct: purified ^15N-labeled Tsg101 UEV domain protein complexed to various prazoles; made in house
T1 sequence (Q99816 2-145 limits assumed): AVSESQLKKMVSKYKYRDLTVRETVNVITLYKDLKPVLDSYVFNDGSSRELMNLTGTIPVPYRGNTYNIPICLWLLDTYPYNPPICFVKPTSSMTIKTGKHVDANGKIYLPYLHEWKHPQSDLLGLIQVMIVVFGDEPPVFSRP
Briefly: NMR chemical shift perturbations of Tsg101 UEV domain complexed with prazoles. Type of data set: binding. The settings on record: 15N-Tsg101 UEV, pH 5.8, 300 K.

Another data set deals with EBV. Type of data set: cell-based, Epstein Barr virus. The settings on record: CLIX-FZ; for Virus Production (resistant or susceptible), EBV: BALF5.
The nature of data set [6]: in vitro. The settings on record: human. This is another data set of the same source.
For another data set, the system named is CLIX-FZ cells. Briefly: WST-1 metabolic activity of CLIX-FZ cells. Format: cell-based. The settings on record: 40 μM concentration range, WST-1, 24 hr. As to the method:
Figure 4 EBV replication is tenatoprazole-sensitive. Latent EBV was reactivated in CLIX-FZ cells by addition of doxycycline in the presence of DMSO (black bars) or DMSO plus tenatoprazole (20 µM or 40 µM, grey bars); non-treated cells are shown as white bars. After 72 hr, cells and conditioned media were harvested. Panel A, extracellular EBV DNA measured in pellet fraction of conditioned media. Panel B, intracellular EBV DNA measured in lysed cells. EBV DNA was determined by quantitative-PCR (qPCR) for the EBV BALF5 gene. EBV DNA copy number from each preparation was normalized to the DMSO-treated control. Panel C, metabolic activity of cells in the presence of tenatoprazole. The cells were grown for 24 hr in media containing the indicated concentrations of doxycycline and tenatoprazole followed by assessment of metabolic activity assessed using the WST-1 assay. Panel D, fractionation of intracellular DNA. […] DNA was extracted from each fraction and the relative number of EBV genomes from each fraction was determined by qPCR using primers directed towards the EBV BALF5 gene. […]
Metabolic activity of the cells in the presence of the prazole drugs for 24 hr was assessed using the WST-1 assay (Roche Applied Science) following the manufacturer's protocol.
Background: Formazan colour is commonly taken as a measure of viable cells.

A further data set concerns ZIKV PRVABC59. Format: cell-based, Zika virus.
A short description of data set [7]: in vitro. The settings on record: human. The source holds these as a separate data set.
The next data set relates to HIV-1 Gag-HA VLP. Type of data set: cell-based.
Data set [8] has as its system HIV-1 P7L-Gag (disrupted PTAP motif). Type of data set: cell-based.
Setting [9] is: read-out: Approximate Effective Concentration (EC50).
The mark [10] stands for this setting: read-out: EC50, inhibition of HIV-1 production.
Where [11] appears, read: doxycycline, 20 µM and 40 μM, 72 hr, qPCR.

Take `Cc1c(OCC(F)(F)F)ccnc1C[S@@+]([O-])c1nc2ccccc2[nH]1` [dexlansoprazole]: the “conversion rate, dexlansoprazole compared with lansoprazole” value in [1] (Supplemental Fig. 3A) was “no significant difference in rates”.

As to `COc1ccc2nc([S@@+]([O-])Cc3ncc(C)c(OC)c3C)[nH]c2c1` [Esomeprazole, Esomeprazole magnesium hydrate], the “inhibitory effect on EBOV” value in the data set with EBOV (Zaire) is on record as “no significant inhibitory effect”. Moreover, the “Selectivity Index (CC50/EC50)” value with HIV-1 stood at 1.0. The results for the EC50 (in the data set on HIV-1 (setting [9]); in the data set with HIV-1 (setting [10]); in data set [3]) were 75 µM, about 75 µM and 50 µM, respectively. In addition, the CC50 at 24 h in data set [2] is 75 µM. For the same molecule, the “prodrug remaining at 17 hours” value in data set [1] (2 mM prazole, 300 K) is given as ~ 55%.

As to `Cc1c(OCC(F)(F)F)ccnc1C[S+]([O-])c1nc2ccccc2[nH]1` (stereo not shown) [Lansoprazole, lansoprazole], in the data set with HIV-1 (HIV-1, Table 3), the “Selectivity Index (CC50/EC50)” value is listed as 2.0. For the same molecule, the EC50 in the data set with HIV-1 (setting [9]) was 25 µM; in the data set with HIV-1 (setting [10]), about 25 µM. For the same molecule, in data set [2], the CC50 at 24 h stood at 50 µM. In [1] (2 mM prazole, 300 K), the “prodrug remaining at 17 hours” value is reported as 20%.

Take `COc1ccnc(C[S+]([O-])c2nc3ccc(OC(F)F)cc3[nH]2)c1OC` (stereo not shown) [Pantoprazole, pantoprazole sodium hydrate]: in the data set on HIV-1, the “inhibition of HIV-1 production (in words)” value is on record as “negligible inhibitory activity”. In addition, the “Selectivity Index (CC50/EC50)” value with HIV-1 (HIV-1, Table 3) is under 0.5. For the same molecule, in the data set with HIV-1 (setting [9]), the EC50 was over 75 µM. In addition, the CC50 at 24 h in data set [2] amounted to 40 µM. For the same molecule, the “prodrug remaining at 17 hours” value in data set [1] (2 mM prazole, 300 K) stood at 96%.

For `COCCCOc1ccnc(C[S+]([O-])c2nc3ccccc3[nH]2)c1C` (stereo not shown) [Rabeprazole, rabeprazole sodium], the “inhibition of HIV-1 production (in words)” value with HIV-1 was “strongest inhibitory effect”. For the same molecule, the “Selectivity Index (CC50/EC50)” value in the data set on HIV-1 (HIV-1, Table 3) was 10. In addition, the EC50 in the data set on HIV-1 (setting [9]) is 15 µM; in the data set with HIV-1 (setting [10]), about 15 µM. In addition, the CC50 at 24 h in data set [2] is 150 µM. The “time course of prodrug disappearance” value in [1] (2 mM prazole, 300 K) is “completely disappearing in less than ten hours”.

For `COc1ccc2[nH]c([S+]([O-])Cc3ncc(C)c(OC)c3C)nc2n1` (stereo not shown) [Tenatoprazole, tenatoprazole], in the data set on EBOV (Zaire), the “Selectivity index (CC50/EC50), EBOV” value is “Susceptible (1.6)”. For the same molecule, the EC50 with EBOV (Zaire) (Zaire ebolavirus, HeLa, 24 h, read-out: EC50, inhibition of EBOV spread) came to 80 µM. The molecule further registered a CC50 in “in vitro [4]” of 123 µM. Further, the “DENV replication, tenatoprazole susceptibility” value with DENV 2 strain 16681 is reported as “no tenatoprazole susceptibility”. Further, the “Virus Production (resistant or susceptible), DENV” value in the data set with DENV 2 strain 16681 (293 T, infectivity, FFU) was “Resistant”. The “Virus Production (resistant or susceptible), HIV-1” value with HIV-1 is given as “sensitive”. Further, in the data set with HIV-1 (HIV-1, Table 3), the “Selectivity Index (CC50/EC50)” value was found to be 2.5. In addition, in the data set with HIV-1 (setting [9]), the EC50 was 50 µM. In the data set with HIV-1 (setting [10]), the EC50 was about 50 µM. For the same molecule, in the data set on MAYV TRVL 15537, the “Virus Production (resistant or susceptible), MAYV” value was “sensitive; also recorded: Susceptible (2.5)” and the “reduction of MAYV titer” value is reported as over 2 log10. Moreover, the “Selectivity index (CC50/EC50), MAYV” value in the data set with MAYV TRVL 15537 (293 T) is given as “Susceptible (2.5)”. For the same molecule, the PV tenatoprazole susceptibility result in [5] is listed as “no tenatoprazole susceptibility”. Further, the “chemical shift change of backbone amide of S41” value on Tsg101 UEV domain is recorded as 0.29 ppm. For the same molecule, in the data set with EBV, the “Selectivity index (CC50/EC50), EBV” value is on record as about 4. In the data set on EBV (setting [11]), the “intracellular EBV load” value is recorded as “increased” and the “number of released (extracellular) EBV particles” value is recorded as “dose-dependent reduction”. Moreover, the “Virus Production (resistant or susceptible), EBV” value with EBV (qPCR) is “Susceptible”. The “Virus Production (resistant or susceptible), EBV” value in the data set on EBV (qPCR, listed as tenatoprazole) is “sensitive”. This molecule also registered a CC50 in the data set “in vitro [6]” of 129 µM. Besides, in the data set on CLIX-FZ cells, the “metabolic capacity of host CLIX-FZ cells” value was “some impairment of metabolic capacity”. Moreover, the “reduction in ZIKV infectious virus output” value in the data set on ZIKV PRVABC59 is recorded as under 2 fold. Besides, the “Virus Production (resistant or susceptible), ZIKV” value with ZIKV PRVABC59 (293 T, infectivity, PFU) is given as “Resistant”. The CC50 at 24 h in data set [2] was 125 µM. The viability – broadly, a read-out of living cells in per cent, often relative to untreated cells – at 80 µM in “in vitro [7]” was over 80%. In addition, in the data set on HIV-1 Gag-HA VLP, the “Gag accumulation in cell lysate” value was “drug concentration-dependent decline in Gag accumulation”, the VLP production result is “dose-dependent inhibition of VLP production” and the VLP release efficiency result is listed as “no change”. For the same molecule, the “Alix rescue of P7L-Gag release in presence of tenatoprazole” value in data set [8] (293T, concentration range to which the WT is susceptible) is 2–3 fold. Moreover, in [8] (in the presence or absence of the drug), the “Alix-mediated stimulation of p25 to p24 maturation” value was ~ 3 fold. Besides, the “prodrug remaining at 17 hours” value in [1] (2 mM prazole, 300 K) is ~ 5%.

Values taken from PMC7055211 (Scientific Reports, 2020).
